Assays:
CASOB (Sicklepod) = experiment: Postemergence herbicidal evaluation; type: in vivo, Cassia obtusifolia; details: postemergence
Method in brief: (§1)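 Young plants, roughly two weeks from seeding, receive the active ingredient as a sprayed dispersion (acetone/water 50/50, 0.5% TWEEN 20) at 40 psi. Doses span about 0.0156 to 0.500 kg/ha. A visual score from 0 to 9 compares treated with control plants four to five weeks on.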

[1] = tested on: CHEAL (Lambsquarters, Common); experiment: Postemergence herbicidal evaluation; type: in vivo, Chenopodium album; details: postemergence
Method in brief: as §1

ECHCG (Barnyardgrass) = experiment: Postemergence herbicidal evaluation; type: in vivo, Echinochloa crus-galli; details: postemergence
Method in brief: as §1

ORYSAT (Rice, Tebonnet) [2] = experiment: Postemergence herbicidal evaluation; type: in vivo, Oryza sativa, (L.) Tebonnet; details: postemergence
Method in brief: as §1

GALAP (Galium) = experiment: Preemergence herbicidal evaluation; type: in vivo, Galium aparine; details: rated 4-5 weeks after treatment
Method in brief: (§2)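 Rating at 4–5 wk post-spray on a 0–9 visual scale vs control. Application: aqueous acetone, ~0.0156–0.500 kg/ha, to soil surface after seeding, preemergence.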

SETVI (Foxtail, Green) = experiment: Preemergence herbicidal evaluation; type: in vivo, Setaria viridis; details: rated 4-5 weeks after treatment
Method in brief: as §2

[3] = tested on: GLXMAW (Soybean, Williams); experiment: Preemergence herbicidal evaluation; type: in vivo, Glycine max, (L.) Merr. cv Williams; details: rated 4-5 weeks after treatment
Method in brief: as §2

ORYSAT (Rice, Tebonnet) [4] = experiment: Preemergence herbicidal evaluation; type: in vivo, Oryza sativa, (L.) Tebonnet; details: rated 4-5 weeks after treatment
Method in brief: as §2

[5] = tested on: TRZAWR (Wheat, Winter, cv Riband); experiment: Preemergence herbicidal evaluation; type: in vivo, Triticum aestivum; details: rated 4-5 weeks after treatment
Method in brief: as §2

ZEAMX (Corn, Field) = experiment: Preemergence herbicidal evaluation; type: in vivo, Zea mays; details: rated 4-5 weeks after treatment
Method in brief: as §2

CYPIR (Rice Flatsedge) = experiment: Preemergence weed control under flooded paddy conditions; type: in vivo, Cyperus iria; details: rated 3-4 weeks after treatment
Method in brief: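 Seeds or propagules sown in silt loam kept flooded 1.5-3 cm; compounds in 50/50 acetone/water pipetted into flood water at about 0.0313 to 0.500 kg/ha. Greenhouse; visual 0-9 rating versus untreated control 3-4 weeks after treatment.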

MOOVA (Monochoria) = experiment: as above; type: in vivo, Monochoria vaginalis; details: rated 3-4 weeks after treatment
Method in brief: (§3)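 Silt loam, seeds in top 0.5 cm; flood held 1.5-3 cm; test cpd as acetone/water 50/50 into flood water, ~0.0313-0.500 kg/ha a.i.; greenhouse 3-4 wk; visual 0-9 score vs control.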

[6] = tested on: SAGPY (Arrowhead (Pygmaea)); experiment: as above; type: in vivo, Sagittaria pygmaea; details: rated 3-4 weeks after treatment
Method in brief: as §3

CYPSE (Flatsedge) = experiment: Postemergence weed control under flooded paddy conditions; type: in vivo, Cyperus serotinus; details: postemergence weeds, 3-4 weeks after treatment
Method in brief: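 Weeds 3 to 5 cm tall and rice seedlings at the 1.5 to 2.5 leaf stage were flooded, with water held 1.5 to 3 cm above the soil. Compounds in 50/50 v/v aqueous/acetone went into the flood water at about 0.0313 to 0.500 kg/ha. Visual 0-9 ratings versus control were made 3 to 4 weeks later.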

CCOC(=O)CN1C(=O)C(C)SC1=Nc1cc(-n2c(=O)cc(C(F)(F)F)n(C)c2=O)c(F)cc1Cl (centres unmarked) [Compound 12]
CASOB herbicidal rating (CASOB (Sicklepod); rate 0.0156 kg/ha): 0.0
CASOB herbicidal rating (CASOB (Sicklepod); rate 0.0313 kg/ha): 3.0
CASOB herbicidal rating (CASOB (Sicklepod); rate 0.0625 kg/ha): 7.0
CASOB herbicidal rating (CASOB (Sicklepod); rate 0.1250 kg/ha): 9.0
CHEAL herbicidal rating ([1]; rate 0.0156 kg/ha): 9.0
CHEAL herbicidal rating ([1]; rate 0.0313 kg/ha): 9.0
CHEAL herbicidal rating ([1]; rate 0.0625 kg/ha): 9.0
CHEAL herbicidal rating ([1]; rate 0.1250 kg/ha): 9.0
ECHCG herbicidal rating (ECHCG (Barnyardgrass); rate 0.0156 kg/ha): 0.0
ECHCG herbicidal rating (ECHCG (Barnyardgrass); rate 0.0313 kg/ha): 1.0
ECHCG herbicidal rating (ECHCG (Barnyardgrass); rate 0.0625 kg/ha): 4.0
ECHCG herbicidal rating (ECHCG (Barnyardgrass); rate 0.1250 kg/ha): 9.0
ORYSAT herbicidal rating (ORYSAT (Rice, Tebonnet) [2]; rate 0.0156 kg/ha): 2.5
ORYSAT herbicidal rating (ORYSAT (Rice, Tebonnet) [2]; rate 0.0313 kg/ha): 3.0
ORYSAT herbicidal rating (ORYSAT (Rice, Tebonnet) [2]; rate 0.0625 kg/ha): 3.0
ORYSAT herbicidal rating (ORYSAT (Rice, Tebonnet) [2]; rate 0.1250 kg/ha): 5.0
GALAP preemergence herbicidal rating (GALAP (Galium); rate 0.0156 kg/ha): 0.0
GALAP preemergence herbicidal rating (GALAP (Galium); rate 0.0313 kg/ha): 0.0
GALAP preemergence herbicidal rating (GALAP (Galium); rate 0.0625 kg/ha): 9.0
GALAP preemergence herbicidal rating (GALAP (Galium); rate 0.1250 kg/ha): 9.0
GALAP preemergence herbicidal rating (GALAP (Galium); rate 0.2500 kg/ha): 9.0
SETVI preemergence herbicidal rating (SETVI (Foxtail, Green); rate 0.0156 kg/ha): 8.5
SETVI preemergence herbicidal rating (SETVI (Foxtail, Green); rate 0.0313 kg/ha): 9.0
SETVI preemergence herbicidal rating (SETVI (Foxtail, Green); rate 0.0625 kg/ha): 9.0
SETVI preemergence herbicidal rating (SETVI (Foxtail, Green); rate 0.1250 kg/ha): 9.0
SETVI preemergence herbicidal rating (SETVI (Foxtail, Green); rate 0.2500 kg/ha): 9.0
GLXMAW preemergence herbicidal rating ([3]; rate 0.0156 kg/ha): 1.5
GLXMAW preemergence herbicidal rating ([3]; rate 0.0313 kg/ha): 2.0
GLXMAW preemergence herbicidal rating ([3]; rate 0.0625 kg/ha): 3.5
GLXMAW preemergence herbicidal rating ([3]; rate 0.1250 kg/ha): 6.5
GLXMAW preemergence herbicidal rating ([3]; rate 0.2500 kg/ha): 9.0
ORYSAT preemergence herbicidal rating (ORYSAT (Rice, Tebonnet) [4]; rate 0.0156 kg/ha): 0.0
ORYSAT preemergence herbicidal rating (ORYSAT (Rice, Tebonnet) [4]; rate 0.0313 kg/ha): 1.0
ORYSAT preemergence herbicidal rating (ORYSAT (Rice, Tebonnet) [4]; rate 0.0625 kg/ha): 4.0
ORYSAT preemergence herbicidal rating (ORYSAT (Rice, Tebonnet) [4]; rate 0.1250 kg/ha): 7.0
ORYSAT preemergence herbicidal rating (ORYSAT (Rice, Tebonnet) [4]; rate 0.2500 kg/ha): 7.0
TRZAWR preemergence herbicidal rating ([5]; rate 0.0156 kg/ha): 0.0
TRZAWR preemergence herbicidal rating ([5]; rate 0.0313 kg/ha): 1.0
TRZAWR preemergence herbicidal rating ([5]; rate 0.0625 kg/ha): 5.0
TRZAWR preemergence herbicidal rating ([5]; rate 0.1250 kg/ha): 8.0
TRZAWR preemergence herbicidal rating ([5]; rate 0.2500 kg/ha): 8.0
ZEAMX preemergence herbicidal rating (ZEAMX (Corn, Field); rate 0.0156 kg/ha): 4.0
ZEAMX preemergence herbicidal rating (ZEAMX (Corn, Field); rate 0.0313 kg/ha): 5.0
ZEAMX preemergence herbicidal rating (ZEAMX (Corn, Field); rate 0.0625 kg/ha): 5.5
ZEAMX preemergence herbicidal rating (ZEAMX (Corn, Field); rate 0.1250 kg/ha): 6.5
ZEAMX preemergence herbicidal rating (ZEAMX (Corn, Field); rate 0.2500 kg/ha): 8.5
Herbicidal rating CYPIR (CYPIR (Rice Flatsedge); 0.0313 kg/ha): 0.0
Herbicidal rating CYPIR (CYPIR (Rice Flatsedge); 0.0625 kg/ha): 0.0
Herbicidal rating CYPIR (CYPIR (Rice Flatsedge); 0.1250 kg/ha): 1.0
Herbicidal rating CYPIR (CYPIR (Rice Flatsedge); 0.2500 kg/ha): 0.0
Herbicidal rating MOOVA (MOOVA (Monochoria); 0.0313 kg/ha): 9.0
Herbicidal rating MOOVA (MOOVA (Monochoria); 0.0625 kg/ha): 9.0
Herbicidal rating MOOVA (MOOVA (Monochoria); 0.1250 kg/ha): 9.0
Herbicidal rating MOOVA (MOOVA (Monochoria); 0.2500 kg/ha): 9.0
Herbicidal rating SAGPY ([6]; 0.0313 kg/ha): 0.0
Herbicidal rating SAGPY ([6]; 0.0625 kg/ha): 1.0
Herbicidal rating SAGPY ([6]; 0.1250 kg/ha): 4.0
Herbicidal rating SAGPY ([6]; 0.2500 kg/ha): 0.0
Herbicidal rating CYPSE (CYPSE (Flatsedge); rate 0.0313 kg/ha): 1.0
Herbicidal rating CYPSE (CYPSE (Flatsedge); rate 0.0625 kg/ha): 3.0
Herbicidal rating CYPSE (CYPSE (Flatsedge); rate 0.1250 kg/ha): 1.0
Herbicidal rating CYPSE (CYPSE (Flatsedge); rate 0.2500 kg/ha): 6.0
